Earlier results in publication PMC4474874, “Effect of JAK Inhibitors on Release of CXCL9, CXCL10 and CXCL11 from Human Airway Epithelial Cells” (PLoS ONE, 2015).
Read-outs that look alike come from different tables or passages of the source.

Key:
JAK/JAK3 = system: JAK/JAK3; set-up: method as in PMID 18094329; settings: cellular assay; cited from earlier work
IKKb = system: IKKb; set-up: method as in PMID 18094329; settings: inactive or IC50 >30μM; read-out: IC50 against IKKb; cited from earlier work
IKKi = system: IKKi; set-up: method as in PMID 18094329; settings: inactive or IC50 >30μM; read-out: IC50 against IKKi; cited from earlier work
MET = system: MET; set-up: method as in PMID 18094329; settings: inactive or IC50 >30μM; read-out: IC50 against MET; cited from earlier work
PKA = system: PKA; set-up: method as in PMID 18094329; settings: at concentrations >5μM; cited from earlier work
[1] = system: chronic lymphocytic leukaemia cells; set-up: method as in PMID 20716767; settings: cited from earlier work
JAK1 = system: JAK1; set-up: method as in Coe et al., 25; settings: ref Coe et al., 25, cited from earlier work
JAK2 = system: JAK2; set-up: method as in Coe et al., 25; settings: ref Coe et al., 25, cited from earlier work
[2] = system: human T lymphocytes (JAK1/3); set-up: method as in Coe et al., 25; settings: ref Coe et al., 25; read-out: IC50 IL-2-induced IFNγ release by human T lymphocytes (JAK1/3); cited from earlier work
GSK3β = system: GSK3β; set-up: method as in Coe et al., 25; settings: ATP at the Km; ref Coe et al., 25; cited from earlier work
Protein kinase C β2 = settings: read-out: IC50 Protein kinase C β2 Km; ATP at the Km; ref Coe et al., 25; cited from earlier work

| Compound | IC50 (JAK/JAK3) [nM] | IC50 (IKKb) [nM] | IC50 (IKKi) [nM] | IC50 (MET) [nM] | effect against PKA (PKA) | concentration effective against IL-4-induced cytotoxic resistance [1] | IC50 (JAK1; 1mM ATP, read-out: IC50 JAK1 1 mM) [nM] | IC50 (JAK1; ATP at the Km, read-out: IC50 JAK1 Km) [nM] | IC50 (JAK2; 1mM ATP, read-out: IC50 JAK2 1 mM) [nM] | IC50 (JAK2; ATP at the Km, read-out: IC50 JAK2 Km) [nM] | IC50 [2] [nM] | IC50 (GSK3β) [nM] | IC50 (Protein kinase C β2) [nM] |
| --- | --- | --- | --- | --- | --- | --- | --- | --- | --- | --- | --- | --- | --- |
| C[C@@H]1CCN(C(=O)N2CCCC2)C[C@@H]1N(C)c1ncnc2[nH]ccc12 [PF956980] | 22 | > 30000 | > 30000 | > 30000 | modest effects | ~ 0.3 μM | – | – | – | – | – | – | – |
| CCc1cc(O)ccc1-c1ccc2c(-c3nc4ccccc4[nH]3)n[nH]c2c1 [PF1367550, 4-(3-(1H-benzo[d]imidazol-2-yl)-1H-indazol-6-yl)-3-ethylphenol] | – | – | – | – | – | – | 0.4 | 0.8 | 1.3 | 1 | 14 | 617 | 665 |
